Where two headings read alike, the source gives them in different places.
What was measured:
[1] = tested on: HuPrime model GA6201 human gastric cancer subcutaneous transplantation PDX tumor; test: GA6201 human gastric cancer subcutaneous PDX model; assay type: in vivo, BALB/c nude mice
Description: Then the dose was changed to 10 mg/kg by intraperitoneal injection administration daily for 4 days (QD×4, Day14-Day17). The dose and mode of administration were then changed to 20 mg/kg via tail vein injection for one day (QD×1, Day18). After drug withdrawal for 10 days, the dose was changed again, and 50 mg/kg was administered via tail vein injection once a week for two weeks QW×2 (Day28, Day35).
The tumor volumes of mice from different groups were measured at different days and the average values were obtained.

[2] = tested on: MIA PaCa-2; test: Cytotoxicity, pancreatic cancer PA cells MIA PaCa-2; assay type: cell-based; conditions: Homo sapiens
Description: (§1) Compounds were exposed at various concentrations for 72 hours, followed by a wash step. Fresh medium was added for growth. The cell was stained to determine the cell survival rate and compared with controls treated with medium only.
(§2) In particular, exponentially grown cells were inoculated in 96-well plates at a density of 2×10^3 cells/100 μl/well and incubated for 24 hours at 37° C. and under the conditions of 5% CO2, 95% air and 100% relative humidity before addition of 99 μl of culture solution. The compounds were dissolved in 100% DMSO at 200 times of the desired final test concentration. When the drug was added, an aliquot of 1 μl of the compound at the specified concentration was added to microwells already containing 199 μl of medium to obtain the reported final drug concentration. After adding the drug, plates were incubated for an additional 72 hours at 37° C., 5% CO2, 95% air and 100% relative humidity. The cell assay plate was left to balance for 30 minutes at room temperature and 100 μL of medium was removed from per well. 100 μl CTG reagent (CelltiterGlo kit) was added into each well. The plate was placed on a fast shaker and shaked for 2 min, and kept in dark at room temperature for 30 min. The chemiluminescence signal value was read by Envision instrument. […]

[3] = tested on: NCI-H522; test: Cytotoxicity, NSCLC cell line NCI-H522; assay type: cell-based; conditions: Homo sapiens
Description: as §1, §2

[4] = tested on: KP-2; test: Cytotoxicity, pancreatic cancer PA cells KP-2; assay type: cell-based; conditions: Homo sapiens
Description: as §1, §2

[5] = tested on: NCI-H1944; test: Cytotoxicity, NSCLC cell line NCI-H1944; assay type: cell-based; conditions: Homo sapiens
Description: as §1, §2

[6] = tested on: Panc 10.05; test: Cytotoxicity, pancreatic cancer PA cells Panc 10.05; assay type: cell-based; conditions: Homo sapiens, Panc1005
Description: as §1, §2

[7] = tested on: QGP-1; test: Cytotoxicity, pancreatic cancer PA cells QGP-1; assay type: cell-based; conditions: Homo sapiens
Description: as §1, §2

[8] = tested on: PL45; test: Cytotoxicity, pancreatic cancer PA cells PL45; assay type: cell-based; conditions: Homo sapiens
Description: as §1, §2

[9] = tested on: PANC-1; test: Cytotoxicity, pancreatic cancer PA cells PANC-1; assay type: cell-based; conditions: Homo sapiens
Description: as §1, §2

[10] = tested on: HPAF-II; test: Cytotoxicity, pancreatic cancer PA cells HPAF-II; assay type: cell-based; conditions: Homo sapiens
Description: as §1, §2

[11] = tested on: murine intestinal cancer CT26 subcutaneous model; test: Murine intestinal cancer CT26 subcutaneous model; assay type: in vivo, BALB/c mice; conditions: 30 mg/kg, tail vein, twice a week
Description: BALB/c mice were subcutaneously inoculated with murine intestinal cancer CT26 cells to establish a murine intestinal cancer subcutaneous transplantation model. […] Anti-mouse PD-1 Ab 10 mg/kg in the single treatment group and in the combination treatment group with compound C 30 mg/kg was administered by intraperitoneal injection twice a week.

[12] = tested on: HuPrime pancreatic cancer PA3546 subcutaneous xenograft PDX tumor; test: PA3546 human pancreatic cancer subcutaneous PDX model; conditions: for relative tumor inhibition rate TGI (%): Day 25
Description: BALB/c nude mice were subcutaneously inoculated with HuPrime® model PA3546 tumor blocks to establish human pancreatic cancer subcutaneous transplantation tumor model. […] Efficacy was evaluated according to the relative tumor inhibition rate TGI (%), and safety was evaluated according to the change in body weight and the death of animals.

[13] = tested on: human lung cancer NCI-H460-Luc2 intracranial transplantation tumor; conditions: for mean biofluorescence value / TGI: 11 days after grouping
Description: BALB/c nude mice were inoculated intracranially with human lung cancer NCI-H460-Luc2 cells to establish human lung cancer intracranial transplantation tumor model. […] The relative tumor inhibition rate TGI (%) was calculated based on tumor biofluorescence value and the efficacy was evaluated.

[14] = Maximal tolerance dose (MTD) test, compound C, two cycles; assay type: in vivo, ICR mice; conditions: both sexes, mouse, in vivo; intravenous; ICR mice; read-out: maximal tolerance dose (MTD), overall
Description: (§3) 18 ICR mice, 9 females/9 males, were randomly divided into compound C 10 mg/kg group, 20 mg/kg group and 40 mg/kg group according to gender and body weight, with 3 females/3 males in each group. […] It was administered once a day for 5 continuous days, and recovered for 1 week after the last administration. […] To explore the maximal tolerance dose, two cycles of administration were required. The dosage was adjusted and the administration was continued for 5 days.
(§4) The animals were closely observed for 2 h after administration on the administration day and once a day in the morning and once in the afternoon on the non-administration day. Body weight and dietary intake were measured twice a week during the test period. Dead animals and all surviving animals after 14 days from the last administration were subjected to autopsy. The autopsy was performed on the pathological organs, and histopathological examination of the pathological organs was performed.

[15] = tested on: ICR mice; test: as above; assay type: in vivo; conditions: for maximal tolerance dose: intravenous, ICR mice
Description: as §3, §4

[16] = tested on: ICR mice; test: Maximal tolerance dose (MTD) test, compound B; assay type: in vivo; conditions: 40 mg/kg group; i.v. QD×5
Description: 18 ICR mice, 9 females/9 males, were randomly divided into compound B 10 mg/kg group, 20 mg/kg group and 40 mg/kg group according to gender and body weight, with 3 females/3 males in each group. […] It was administered once a day for 5 days, and recovered for 2 weeks after the last administration. The animals were closely observed for 2 h after administration on the administration day and once a day in the morning and once in the afternoon on the non-administration day. Body weight and dietary intake were measured twice a week during the test period. Dead animals and all surviving animals after 14 days from the last administration were subjected to autopsy. The autopsy was performed on the pathological organs, and histopathological examination of the pathological organs was performed.

SMILES: O=[N+]([O-])c1ccc(C(OP(=O)(N2CC2)N2CC2)C(F)(F)F)c2ccccc12 (racemic) [Compound A]
- tumor volume ([1]; Group 06, 5-50 mg/kg regimen, day 3): 121.79 mm^3
- tumor volume ([1]; Group 06, 5-50 mg/kg regimen, day 10): 153.46 mm^3
- tumor volume ([1]; Group 06, 5-50 mg/kg regimen, day 14): 191.17 mm^3
- tumor volume ([1]; Group 06, 5-50 mg/kg regimen, day 28): 280.86 mm^3
- tumor volume ([1]; Group 06, 5-50 mg/kg regimen, day 42): 300.46 mm^3
- tumor volume ([1]; Group 06, 5 then 10 mg/kg i.p., 20 and 50 mg/kg i.v. (Table 10), day 0): 94.24 mm^3
- IC50 [2]: 6.9 µM
- IC50 [3]: 19.2 µM
- IC50 [4]: 29.7 µM
- IC50 [5]: 0.538 µM
- IC50 [6]: 27.7 µM
- IC50 [7]: 6.27 µM
- IC50 [8]: 17.1 µM
- IC50 [9]: 29.3 µM
- IC50 [10]: 26.1 µM

SMILES: O=[N+]([O-])c1ccc([C@@H](OP(=O)(N2CC2)N2CC2)C(F)(F)F)c2ccccc12 (single isomer, unassigned) [Compound C]
- median survival time [11]: 19 days
- body weight loss / tolerability ([12]; 10 mg/kg (Group 3)): no significant body weight loss and were well tolerated
- relative tumor inhibition rate TGI (%) ([12]; 10 mg/kg tail vein QW×3): 32.35%
- body weight loss / death ([12]; 20 mg/kg (Group 4)): significant weight loss and even death of individual or part of mice
- relative tumor inhibition rate TGI (%) ([12]; 20 mg/kg tail vein QW×3): 36.79%
- body weight loss / death ([12]; 40 mg/kg (Group 5)): significant weight loss and even death of individual or part of mice
- relative tumor inhibition rate TGI (%) ([12]; 40 mg/kg tail vein QW×3): 35.93%
- mean biofluorescence value ([13]; 10 mg/kg tail vein QW×3): 7.07E+05 photon/second
- TGI ([13]; 10 mg/kg tail vein): 99.82%
- mean biofluorescence value ([13]; 20 mg/kg tail vein QW×3): 1.79E+05 photon/second
- TGI ([13]; 20 mg/kg tail vein): 100.03%
- mean biofluorescence value ([13]; 40 mg/kg tail vein QW×3): 1.04E+05 photon/second
- TGI ([13]; 40 mg/kg tail vein): 100.05%
- tolerability ([13]; single drug, 10-40 mg/kg): well tolerated
- MTD [14]: 20 to 40 mg/kg
- animal deaths after first cycle ([15]; 10, 20 and 40 mg/kg i.v., continuous administration for 5 days): no animal death
- animal deaths ([15]; 10/80 mg/kg group (first cycle 10, second cycle 80 mg/kg)): 1/6
- animal deaths ([15]; 20/60 mg/kg group): 3/6
- animal deaths ([15]; 40/40 mg/kg group): 1/6
- maximal tolerance dose ([15]; first cycle): > 40 mg/kg
- maximal tolerance dose ([15]; second cycle): < 40 mg/kg

SMILES: O=[N+]([O-])c1ccc([C@H](OP(=O)(N2CC2)N2CC2)C(F)(F)F)c2ccccc12 [Compound B]
- animal deaths [16]: Three of the six
